BindingDB's records for doi:10.1016/S0960-894X(02)01050-8 (The University of Texas At Houston, 2003)
Square brackets hold non-standard residues; d marks the D form. Peptide text beside a SMILES is read from it. ξ: configuration not given here. Phe(4-tetrazol-5-yl) = N[C@@H](Cc1ccc(-c2nnn[nH]2)cc1)C(=O)O; Phe(4-COOH) = N[C@@H](Cc1ccc(C(=O)O)cc1)C(=O)O; pY = N[C@@H](Cc1ccc(OP(=O)(O)O)cc1)C(=O)O; Thr(3ξ) = CC(O)[C@H](N)C(=O)O

molecular target: Signal transducer and activator of transcription 3 (Mus musculus, UniProt P42227); experiment: Electrophoretic Mobility Shift Assay (EMSA); settings: pH 7.8; 22 °C
Sequence (P42227 whole entry, the tested form may be a part): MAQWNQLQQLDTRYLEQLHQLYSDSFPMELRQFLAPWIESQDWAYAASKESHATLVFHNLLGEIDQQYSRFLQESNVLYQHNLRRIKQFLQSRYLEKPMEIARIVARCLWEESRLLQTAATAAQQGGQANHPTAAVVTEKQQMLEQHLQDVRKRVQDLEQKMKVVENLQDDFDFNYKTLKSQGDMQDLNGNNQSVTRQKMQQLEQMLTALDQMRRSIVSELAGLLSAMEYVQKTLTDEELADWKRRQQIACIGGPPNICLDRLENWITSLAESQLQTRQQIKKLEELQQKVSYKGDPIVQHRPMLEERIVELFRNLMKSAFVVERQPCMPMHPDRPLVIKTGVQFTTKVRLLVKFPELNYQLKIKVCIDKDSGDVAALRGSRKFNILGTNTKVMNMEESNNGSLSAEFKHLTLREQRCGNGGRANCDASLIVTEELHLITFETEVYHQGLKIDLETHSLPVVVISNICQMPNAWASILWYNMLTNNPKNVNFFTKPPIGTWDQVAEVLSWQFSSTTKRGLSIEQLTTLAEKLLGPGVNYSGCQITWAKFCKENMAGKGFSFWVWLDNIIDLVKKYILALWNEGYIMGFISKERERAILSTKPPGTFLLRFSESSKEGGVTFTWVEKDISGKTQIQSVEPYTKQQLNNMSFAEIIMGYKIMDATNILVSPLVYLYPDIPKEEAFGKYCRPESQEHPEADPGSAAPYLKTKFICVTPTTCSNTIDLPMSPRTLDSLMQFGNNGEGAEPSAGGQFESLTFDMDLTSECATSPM
Procedure: His10-Stat3 was expressed in Sf9 cells from a baculovirus encoding the recombinant protein. A nuclear extract of the Sf9 cells was incubated with 32P-labeled high affinity c-fos sis inducible element (hSIE) either alone or in the presence of inhibitor. After 20 min of incubation, samples were electrophoresed on polyacrylamide gels. The gels were dried, exposed to a phosphorimager screen and scanned. IC50 values were derived from plots of spot intensity versus phosphopeptide concentration. The affinity of peptides to the SH2 domain is measured by the intensity of the radioactivity of the Stat3-DNA complex band in the electrophoresis gel.

Row | Structure (SMILES) | IC50 [µM]
1 | CC(=O)N[C@@H](Cc1ccc(OP(=O)(O)O)cc1)C(=O)N[C@@H](CC(C)C)C(=O)N1CCC[C@H]1C(N)=O [Y(p)LP] (Ac-[pY]-Leu-Pro-NH2) | > 6
2 | CCC(C)[C@H](NC(=O)[C@H](Cc1ccc(OP(=O)(O)O)cc1)NC(C)=O)C(=O)N[C@@H](CC(N)=O)C(=O)N[C@@H](CCC(N)=O)C(=O)N[C@@H](CO)C(=O)N[C@H](C(N)=O)C(C)C (some centres undefined) [Y(p)INQSV] | 30
3 | CC(=O)N[C@@H](Cc1ccc(OP(=O)(O)O)cc1)C(=O)N[C@@H](CC(C)C)C(=O)N1CCC[C@H]1C(=O)N[C@@H](CC(N)=O)C(=O)N[C@H](C(=O)N[C@H](C(N)=O)C(C)C)C(C)O (stereo partly drawn) [4-[(2S)-2-{[(2S)-1-[(2S)-2-{[(1S)-2-carbamoyl-1-{[(1S,2S)-1-{[(1S)-1-carbamoyl-2-methylpropyl]carbamoyl}-2-hydroxypropyl]carbamoyl}ethyl]carbamoyl}pyrrolidin-1-yl]-4-methyl-1-oxopentan-2-yl]carbamoyl}-2-acetamidoethyl]phenoxyphosphonic acid] (Ac-[pY]LPN[Thr(3ξ)]V-NH2) | 2
4 | CC(=O)N[C@@H](Cc1ccc(-c2nnn[nH]2)cc1)C(=O)N[C@@H](CC(C)C)C(=O)N1CCC[C@H]1C(=O)N[C@@H](CCC(N)=O)C(=O)N[C@H](C(=O)N[C@H](C(N)=O)C(C)C)C(C)O (stereo partly drawn) [(2S)-N-[(1S,2S)-1-{[(1S)-1-carbamoyl-2-methylpropyl]carbamoyl}-2-hydroxypropyl]-2-{[(2S)-1-[(2S)-2-[(2S)-2-acetamido-3-[4-(2H-1,2,3,4-tetrazol-5-yl)phenyl]propanamido]-4-methylpentanoyl]pyrrolidin-2-yl]formamido}pentanediamide] (Ac-[Phe(4-tetrazol-5-yl)]LPQ[Thr(3ξ)]V-NH2) | > 6
5 | CC(=O)N[C@@H](Cc1ccc(OP(=O)(O)O)cc1)C(=O)N[C@@H](CC(C)C)C(=O)N1CCC[C@H]1C(=O)N[C@@H](CCC(N)=O)C(N)=O (Ac-[pY]LPQ-NH2) | 1
6 | CC(=O)N[C@@H](Cc1ccc(OP(=O)(O)O)cc1)C(=O)N[C@@H](C)C(=O)N1CCC[C@H]1C(=O)N[C@@H](CCC(N)=O)C(=O)N[C@H](C(=O)N[C@H](C(N)=O)C(C)C)C(C)O (some centres undefined) [Y(p)APQTV] (Ac-[pY]APQ[Thr(3ξ)]V-NH2) | 1.6
7 | CC(=O)N[C@@H](Cc1ccc(OP(=O)(O)O)cc1)C(=O)N[C@@H](CC(C)C)C(=O)N1CCC[C@H]1C(=O)N[C@@H](CCC(N)=O)C(=O)N[C@H](C(N)=O)C(C)O (stereo partly drawn) [4-[(2S)-2-{[(2S)-1-[(2S)-2-{[(1S)-3-carbamoyl-1-{[(1S,2S)-1-carbamoyl-2-hydroxypropyl]carbamoyl}propyl]carbamoyl}pyrrolidin-1-yl]-4-methyl-1-oxopentan-2-yl]carbamoyl}-2-acetamidoethyl]phenoxyphosphonic acid] (Ac-[pY]LPQ[Thr(3ξ)]-NH2) | 0.6
8 | CC(=O)N[C@@H](Cc1ccc(OP(=O)(O)O)cc1)C(=O)N[C@@H](CCC(N)=O)C(=O)N[C@@H](CCCCN)C(=O)N[C@@H](CCC(N)=O)C(=O)N[C@H](C(=O)N[C@@H](CCCN=C(N)N)C(N)=O)C(C)O (some centres undefined) [Y(p)QKQTR] (Ac-[pY]QKQ[Thr(3ξ)]R-NH2) | 8
9 | CC(=O)N[C@@H](Cc1ccc(OP(=O)(O)O)cc1)C(=O)N[C@@H](CC(C)C)C(=O)N[C@@H](C)C(=O)N[C@@H](CCC(N)=O)C(=O)N[C@H](C(=O)N[C@H](C(N)=O)C(C)C)C(C)O (stereo partly drawn) [4-[(2S)-2-{[(1S)-1-{[(1S)-1-{[(1S)-3-carbamoyl-1-{[(1S,2S)-1-{[(1S)-1-carbamoyl-2-methylpropyl]carbamoyl}-2-hydroxypropyl]carbamoyl}propyl]carbamoyl}ethyl]carbamoyl}-3-methylbutyl]carbamoyl}-2-acetamidoethyl]phenoxyphosphonic acid] (Ac-[pY]LAQ[Thr(3ξ)]V-NH2) | 4
10 | CC(=O)N[C@@H](Cc1ccc(OP(=O)(O)O)cc1)C(=O)N[C@@H](CO)C(=O)N[C@H](C(=O)N[C@H](C(=O)N[C@H](C(=O)N[C@@H](Cc1cnc[nH]1)C(N)=O)C(C)C)C(C)C)C(C)O (some centres undefined) [Y(p)STVVH] (Ac-[pY]S[Thr(3ξ)]VVH-NH2) | > 150
11 | CC(=O)N[C@@H](Cc1ccc(OP(=O)(O)O)cc1)C(=O)N[C@@H](CC(C)C)C(=O)N[C@@H](CCCCN)C(=O)N[C@H](C(=O)N[C@@H](CCCCN)C(=O)N[C@@H](Cc1ccccc1)C(N)=O)C(C)O (stereo partly drawn) [4-[(2S)-2-{[(1S)-1-{[(1S)-5-amino-1-{[(1S,2R)-1-{[(1S)-5-amino-1-{[(1S)-1-carbamoyl-2-phenylethyl]carbamoyl}pentyl]carbamoyl}-2-hydroxypropyl]carbamoyl}pentyl]carbamoyl}-3-methylbutyl]carbamoyl}-2-acetamidoethyl]phenoxyphosphonic acid] (Ac-[pY]LK[Thr(3ξ)]KF-NH2) | 20
12 | CC(=O)N[C@@H](Cc1ccc(C(=O)O)cc1)C(=O)N[C@@H](CC(C)C)C(=O)N1CCC[C@H]1C(=O)N[C@@H](CCC(N)=O)C(=O)N[C@H](C(=O)N[C@H](C(N)=O)C(C)C)C(C)O (stereo partly drawn) [4-[(2S)-2-{[(2S)-1-[(2S)-2-{[(1S)-3-carbamoyl-1-{[(1S,2S)-1-{[(1S)-1-carbamoyl-2-methylpropyl]carbamoyl}-2-hydroxypropyl]carbamoyl}propyl]carbamoyl}pyrrolidin-1-yl]-4-methyl-1-oxopentan-2-yl]carbamoyl}-2-acetamidoethyl]benzoic acid] (Ac-[Phe(4-COOH)]LPQ[Thr(3ξ)]V-NH2) | > 6
13 | CC(=O)N[C@@H](Cc1ccc(OP(=O)(O)O)cc1)C(=O)N[C@@H](CO)C(=O)N[C@@H](CC(=O)O)C(=O)NCC(=O)N[C@@H](CC(N)=O)C(=O)N[C@@H](Cc1ccccc1)C(N)=O [Y(p)SDGNF] (Ac-[pY]SDGNF-NH2) | > 150
14 | CC(=O)N[C@@H](Cc1ccc(CP(=O)(O)O)cc1)C(=O)N[C@@H](CC(C)C)C(=O)N1CCC[C@H]1C(=O)N[C@@H](CCC(N)=O)C(=O)N[C@H](C(=O)N[C@H](C(N)=O)C(C)C)C(C)O (stereo partly drawn) [({4-[(2S)-2-{[(2S)-1-[(2S)-2-{[(1S)-3-carbamoyl-1-{[(1S,2S)-1-{[(1S)-1-carbamoyl-2-methylpropyl]carbamoyl}-2-hydroxypropyl]carbamoyl}propyl]carbamoyl}pyrrolidin-1-yl]-4-methyl-1-oxopentan-2-yl]carbamoyl}-2-acetamidoethyl]phenyl}methyl)phosphonic acid] | 8
15 | CC(=O)N[C@@H](Cc1ccc(OP(=O)(O)O)cc1)C(=O)N[C@@H](CC(C)C)C(=O)N1CCC[C@H]1C(=O)N[C@@H](CCC(=O)O)C(=O)N[C@H](C(=O)N[C@H](C(N)=O)C(C)C)C(C)O (stereo partly drawn) [(4S)-4-{[(1S,2S)-1-{[(1S)-1-carbamoyl-2-methylpropyl]carbamoyl}-2-hydroxypropyl]carbamoyl}-4-{[(2S)-1-[(2S)-2-[(2S)-2-acetamido-3-[4-(phosphonooxy)phenyl]propanamido]-4-methylpentanoyl]pyrrolidin-2-yl]formamido}butanoic acid] (Ac-[pY]LPE[Thr(3ξ)]V-NH2) | > 6
16 | CC(=O)N[C@@H](Cc1ccc(OP(=O)(O)O)cc1)C(=O)N[C@@H](CC(C)C)C(=O)N[C@@H](CCCN=C(N)N)C(=O)N[C@@H](CS)C(=O)N[C@@H](CC(=O)O)C(=O)N[C@@H](CO)C(N)=O [(3S)-3-[(2R)-2-[(2S)-5-carbamimidamido-2-[(2S)-2-[(2S)-2-acetamido-3-[4-(phosphonooxy)phenyl]propanamido]-4-methylpentanamido]pentanamido]-3-sulfanylpropanamido]-3-{[(1S)-1-carbamoyl-2-hydroxyethyl]carbamoyl}propanoic acid] (Ac-[pY]LRCDS-NH2) | 80
17 | CC(=O)N[C@@H](Cc1ccc(OP(=O)(O)O)cc1)C(=O)N[C@@H](CC(C)C)C(=O)N1CCC[C@H]1C(=O)N[C@@H](CCC(N)=O)C(=O)N[C@H](C(=O)N[C@@H](C)C(N)=O)C(C)O (stereo partly drawn) [4-[(2S)-2-{[(2S)-1-[(2S)-2-{[(1S)-3-carbamoyl-1-{[(1S,2S)-1-{[(1S)-1-carbamoylethyl]carbamoyl}-2-hydroxypropyl]carbamoyl}propyl]carbamoyl}pyrrolidin-1-yl]-4-methyl-1-oxopentan-2-yl]carbamoyl}-2-acetamidoethyl]phenoxyphosphonic acid] (Ac-[pY]LPQ[Thr(3ξ)]A-NH2) | 0.4
18 | CC(=O)N[C@@H](Cc1ccc(OP(=O)(O)O)cc1)C(=O)N[C@@H](CC(C)C)C(=O)N1CCC[C@H]1C(=O)N[C@@H](CCC(N)=O)C(=O)N[C@H](C(=O)N[C@H](C(N)=O)C(C)C)C(C)O (stereo partly drawn) [4-[(2S)-2-{[(2S)-1-[(2S)-2-{[(1S)-3-carbamoyl-1-{[(1S,2S)-1-{[(1S)-1-carbamoyl-2-methylpropyl]carbamoyl}-2-hydroxypropyl]carbamoyl}propyl]carbamoyl}pyrrolidin-1-yl]-4-methyl-1-oxopentan-2-yl]carbamoyl}-2-acetamidoethyl]phenoxyphosphonic acid] | 0.15
19 | CC(=O)N[C@@H](Cc1ccc(OP(=O)(O)O)cc1)C(=O)N[C@@H](CC(C)C)C(=O)N1CCC[C@H]1C(=O)N[C@@H](C)C(=O)N[C@H](C(=O)N[C@H](C(N)=O)C(C)C)C(C)O (some centres undefined) [Y(p)LPATV] (Ac-[pY]LPA[Thr(3ξ)]V-NH2) | > 6
